In one experiment the target is T1, Adenosine receptor A3 (Homo sapiens, UniProt P0DMS8).
T1 sequence (P0DMS8 whole entry): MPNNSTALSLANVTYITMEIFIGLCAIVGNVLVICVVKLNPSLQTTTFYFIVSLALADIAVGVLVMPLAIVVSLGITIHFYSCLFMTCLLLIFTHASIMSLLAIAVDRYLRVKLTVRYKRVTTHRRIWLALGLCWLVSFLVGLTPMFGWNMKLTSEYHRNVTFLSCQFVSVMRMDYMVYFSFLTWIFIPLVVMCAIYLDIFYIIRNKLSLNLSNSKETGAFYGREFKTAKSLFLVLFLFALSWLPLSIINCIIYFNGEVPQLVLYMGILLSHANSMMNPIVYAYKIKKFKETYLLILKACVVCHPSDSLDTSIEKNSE

The target of experiment [1] is T2, Alpha-2A adrenergic receptor (Homo sapiens, UniProt P08913).
T2 sequence (P08913 whole entry): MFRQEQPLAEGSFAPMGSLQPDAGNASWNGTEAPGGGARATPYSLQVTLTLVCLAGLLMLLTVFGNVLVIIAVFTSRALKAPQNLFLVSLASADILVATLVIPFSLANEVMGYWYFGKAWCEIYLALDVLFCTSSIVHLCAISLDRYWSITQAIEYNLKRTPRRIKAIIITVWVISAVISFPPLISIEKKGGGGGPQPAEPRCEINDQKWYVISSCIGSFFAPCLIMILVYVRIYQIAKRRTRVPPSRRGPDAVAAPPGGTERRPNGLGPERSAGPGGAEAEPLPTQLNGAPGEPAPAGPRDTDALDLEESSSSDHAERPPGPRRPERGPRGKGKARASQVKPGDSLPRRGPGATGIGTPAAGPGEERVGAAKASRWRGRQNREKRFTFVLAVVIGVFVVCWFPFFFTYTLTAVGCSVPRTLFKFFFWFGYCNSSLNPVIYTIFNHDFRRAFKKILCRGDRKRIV
It counts as functional, cell-based.

Experiment [2] addresses T3, Cholecystokinin receptor type A (Homo sapiens, UniProt P32238).
T3 sequence (P32238 whole entry): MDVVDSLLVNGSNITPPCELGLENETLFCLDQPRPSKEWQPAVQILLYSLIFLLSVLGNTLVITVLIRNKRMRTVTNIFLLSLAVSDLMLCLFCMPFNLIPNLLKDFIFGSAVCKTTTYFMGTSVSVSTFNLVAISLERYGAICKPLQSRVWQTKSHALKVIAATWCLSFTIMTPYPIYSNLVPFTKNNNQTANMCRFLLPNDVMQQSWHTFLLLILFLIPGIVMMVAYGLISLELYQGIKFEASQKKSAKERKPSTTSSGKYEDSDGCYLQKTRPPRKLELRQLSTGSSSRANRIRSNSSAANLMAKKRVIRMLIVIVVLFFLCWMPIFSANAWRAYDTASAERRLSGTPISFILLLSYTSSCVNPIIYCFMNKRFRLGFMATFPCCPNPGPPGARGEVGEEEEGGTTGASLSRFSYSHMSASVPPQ

In experiment [3] the target is T4, Muscarinic acetylcholine receptor M1 (Homo sapiens, UniProt P11229).
T4 sequence (P11229 whole entry): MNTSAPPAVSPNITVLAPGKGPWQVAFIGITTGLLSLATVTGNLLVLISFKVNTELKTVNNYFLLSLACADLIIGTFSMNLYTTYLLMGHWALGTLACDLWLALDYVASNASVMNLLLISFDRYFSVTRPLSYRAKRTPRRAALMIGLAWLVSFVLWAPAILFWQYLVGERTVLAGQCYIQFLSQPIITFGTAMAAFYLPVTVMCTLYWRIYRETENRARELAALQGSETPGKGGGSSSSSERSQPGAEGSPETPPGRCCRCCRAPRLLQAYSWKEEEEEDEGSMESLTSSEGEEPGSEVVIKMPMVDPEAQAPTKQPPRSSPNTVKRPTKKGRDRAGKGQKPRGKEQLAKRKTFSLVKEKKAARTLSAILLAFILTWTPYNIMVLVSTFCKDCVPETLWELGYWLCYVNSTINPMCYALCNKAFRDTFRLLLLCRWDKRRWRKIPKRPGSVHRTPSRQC
It counts as functional, cell-based.

Experiment [4] concerns the target T5, 5-hydroxytryptamine receptor 1A (Homo sapiens, UniProt P08908).
T5 sequence (P08908 whole entry): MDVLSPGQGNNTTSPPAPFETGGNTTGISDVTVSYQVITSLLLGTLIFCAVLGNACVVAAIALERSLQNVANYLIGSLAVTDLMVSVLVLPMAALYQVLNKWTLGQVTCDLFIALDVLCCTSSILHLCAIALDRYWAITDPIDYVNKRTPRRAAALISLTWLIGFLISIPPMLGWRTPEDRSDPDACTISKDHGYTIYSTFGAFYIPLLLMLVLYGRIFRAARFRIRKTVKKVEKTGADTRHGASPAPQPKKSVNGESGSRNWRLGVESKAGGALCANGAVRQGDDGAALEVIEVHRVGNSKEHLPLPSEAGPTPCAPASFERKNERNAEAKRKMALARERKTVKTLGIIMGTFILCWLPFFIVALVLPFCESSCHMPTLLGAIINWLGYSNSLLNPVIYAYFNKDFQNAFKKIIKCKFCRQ
The class given is functional, cell-based.

Experiment [5] addresses 5-hydroxytryptamine receptor 2B (Homo sapiens, UniProt P41595). It counts as functional, cell-based.
The target in experiment [6] is 3',5'-cyclic-AMP phosphodiesterase 4D (Homo sapiens, UniProt Q08499). The class given is functional.
In another experiment the target is Histamine H3 receptor (Homo sapiens, UniProt Q9Y5N1).

Experimental findings from ChEMBL document CHEMBL5291721, “A preclinical secondary pharmacology resource illuminates target-adverse drug reaction associations of marketed drugs” (Nat Commun, 2023) are described below.
Also: assay procedure not described here.

Chain of Histamine H3 receptor (Q9Y5N1 whole entry): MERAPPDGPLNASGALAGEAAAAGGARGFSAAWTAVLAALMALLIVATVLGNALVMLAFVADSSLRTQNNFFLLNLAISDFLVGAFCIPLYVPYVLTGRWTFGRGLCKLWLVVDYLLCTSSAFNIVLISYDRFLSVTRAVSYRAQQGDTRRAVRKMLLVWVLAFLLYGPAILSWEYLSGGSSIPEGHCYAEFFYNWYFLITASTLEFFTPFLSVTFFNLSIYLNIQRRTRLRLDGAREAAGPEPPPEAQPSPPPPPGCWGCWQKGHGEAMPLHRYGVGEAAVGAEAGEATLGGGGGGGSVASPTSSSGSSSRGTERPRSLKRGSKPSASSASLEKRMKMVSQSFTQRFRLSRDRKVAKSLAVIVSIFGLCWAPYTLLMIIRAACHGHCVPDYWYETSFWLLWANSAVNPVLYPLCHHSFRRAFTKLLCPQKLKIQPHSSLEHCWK
Chain of 3',5'-cyclic-AMP phosphodiesterase 4D (Q08499 whole entry): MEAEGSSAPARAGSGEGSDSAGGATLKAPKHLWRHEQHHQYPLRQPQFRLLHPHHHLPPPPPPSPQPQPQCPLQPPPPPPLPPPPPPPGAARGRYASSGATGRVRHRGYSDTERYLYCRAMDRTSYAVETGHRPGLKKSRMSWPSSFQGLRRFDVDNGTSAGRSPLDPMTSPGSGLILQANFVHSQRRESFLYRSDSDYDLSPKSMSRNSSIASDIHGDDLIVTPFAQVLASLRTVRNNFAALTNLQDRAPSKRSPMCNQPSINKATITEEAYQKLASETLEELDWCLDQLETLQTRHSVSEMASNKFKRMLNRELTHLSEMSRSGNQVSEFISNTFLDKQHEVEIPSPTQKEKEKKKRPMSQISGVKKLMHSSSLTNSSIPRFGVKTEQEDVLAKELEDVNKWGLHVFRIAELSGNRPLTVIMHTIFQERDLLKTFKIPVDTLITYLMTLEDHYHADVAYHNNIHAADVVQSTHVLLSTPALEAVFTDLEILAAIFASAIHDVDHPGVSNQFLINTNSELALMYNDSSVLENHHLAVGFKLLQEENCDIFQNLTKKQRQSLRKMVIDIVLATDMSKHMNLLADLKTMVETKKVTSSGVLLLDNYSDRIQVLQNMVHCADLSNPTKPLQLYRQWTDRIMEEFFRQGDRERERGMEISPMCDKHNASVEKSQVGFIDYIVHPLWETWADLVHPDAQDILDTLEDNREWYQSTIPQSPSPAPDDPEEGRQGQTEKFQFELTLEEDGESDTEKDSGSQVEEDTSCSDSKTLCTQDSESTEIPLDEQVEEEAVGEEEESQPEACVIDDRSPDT
Chain of 5-hydroxytryptamine receptor 2B (P41595 whole entry): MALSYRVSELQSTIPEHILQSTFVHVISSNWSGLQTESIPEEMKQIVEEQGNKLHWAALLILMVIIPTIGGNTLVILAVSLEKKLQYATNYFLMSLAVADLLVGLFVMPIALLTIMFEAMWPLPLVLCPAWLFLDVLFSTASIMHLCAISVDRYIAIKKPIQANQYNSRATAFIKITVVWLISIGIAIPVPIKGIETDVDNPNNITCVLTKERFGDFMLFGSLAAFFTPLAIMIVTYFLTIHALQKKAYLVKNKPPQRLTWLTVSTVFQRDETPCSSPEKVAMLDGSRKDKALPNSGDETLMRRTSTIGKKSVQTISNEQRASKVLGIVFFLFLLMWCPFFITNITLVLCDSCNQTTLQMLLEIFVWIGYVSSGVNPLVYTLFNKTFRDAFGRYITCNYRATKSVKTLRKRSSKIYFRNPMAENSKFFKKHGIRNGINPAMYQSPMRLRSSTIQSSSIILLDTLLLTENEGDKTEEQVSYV

A word on the AC50: it is the concentration at which the activity in the assay is half-maximal. Low readings indicate greater potency, high ones weaker potency. With `COc1cc2nccc(Oc3ccc(NC(=O)C4(C(=O)Nc5ccc(F)cc5)CC4)cc3)c2cc1OC` [CABOZANTINIB], the AC50 is 0.379 µM on Adenosine receptor A3; 19 µM in experiment [1]; over 30 µM in experiment [2]; 2.72 µM in experiment [3]; over 30 µM in experiment [4]; 5.8 µM in experiment [5]. Besides, the values for the AC50 (in experiment [6]; on Histamine H3 receptor) were 10 µM and over 30 µM, respectively.
Regarding `C/C=C/C/C=C/CCC(=O)[C@H]1O[C@H]1C(N)=O` [CERULENIN], the AC50 (at Adenosine receptor A3; in experiment [3]) was over 30 µM in each case.
In the case of `N[C@@H](CS)C(=O)O` [CYSTEINE], the AC50 (on Adenosine receptor A3; in experiment [3]) was over 30 µM in each case.
With `OC[C@H]1O[C@@H](c2ccc(Cl)c(Cc3ccc(O[C@H]4CCOC4)cc3)c2)[C@H](O)[C@@H](O)[C@@H]1O` [EMPAGLIFLOZIN], the AC50 (on Adenosine receptor A3; in experiment [3]) was over 30 µM throughout.
Regarding `CC(C)(O)CNc1nc(Nc2ccnc(C(F)(F)F)c2)nc(-c2cccc(C(F)(F)F)n2)n1` [ENASIDENIB], the AC50 at Adenosine receptor A3 is 0.003 µM; in experiment [3], 23.9 µM.
In the case of `CC[C@H](c1ccc(O)cc1)[C@@H](CC)c1ccc(O)cc1` [HEXESTROL], the results for the AC50 (at Adenosine receptor A3; in experiment [3]) were 8.47 µM and over 3 µM, respectively.
In the case of `O=C1/C(=C2\Nc3ccc(S(=O)(=O)O)cc3C2=O)Nc2ccc(S(=O)(=O)O)cc21` [INDIGOTINDISULFONATE], the AC50 at Adenosine receptor A3 was 0.995 µM; in experiment [3], over 30 µM.
The corresponding values for `OC[C@H]1O[C@@H](c2ccc(F)c(Cc3cc4ccccc4s3)c2)[C@H](O)[C@@H](O)[C@@H]1O` [IPRAGLIFLOZIN] are over 30 µM and 19.8 µM.
Take `CC(C)C[C@H](NC(=O)CNC(=O)c1cc(Cl)ccc1Cl)B(O)O` [IXAZOMIB]: the AC50 (at Adenosine receptor A3; in experiment [3]) was over 30 µM throughout.
In the case of `C=CCN1CC[C@]23CCCC[C@H]2[C@H]1Cc1ccc(O)cc13` [LEVALLORPHAN], the AC50 (on Adenosine receptor A3; in experiment [3]) was over 30 µM each time.
Consider `CN1CCCCC1CCN1c2ccccc2Sc2ccc([S+](C)[O-])cc21` (stereo not given) [MESORIDAZINE], for which the AC50 (on Adenosine receptor A3; in experiment [3]) was over 30 µM throughout.
With `C[C@@H]1C[C@H]2[C@@H]3CCC4=CC(=O)C=C[C@]4(C)[C@@]3(Cl)[C@@H](O)C[C@]2(C)[C@@]1(OC(=O)c1ccco1)C(=O)CCl` [MOMETASONE FUROATE], the results for the AC50 (at Adenosine receptor A3; in experiment [3]) were 1.64 µM and over 30 µM, respectively.
On to `Cc1ccccc1C(=O)Nc1ccc(C(=O)N2CCCC(N(C)C)c3ccccc32)cc1` (stereo not given) [MOZAVAPTAN], for which the AC50 at Adenosine receptor A3 is over 30 µM; in experiment [3], 23.7 µM.
Turning to `O=C(O)c1cc(/N=N/c2ccc(O)c(C(=O)O)c2)ccc1O` [OLSALAZINE], the AC50 (at Adenosine receptor A3; in experiment [3]) was over 30 µM each time.
Regarding `CCOC(=O)C1=C[C@@H](OC(CC)CC)[C@H](NC(C)=O)[C@@H](N)C1` [OSELTAMIVIR], the AC50 (on Adenosine receptor A3; in experiment [3]) was over 30 µM in each case.
Consider `Cc1onc(-c2ccccc2)c1C(=O)N[C@@H]1C(=O)N2[C@@H]1SC(C)(C)[C@@H]2C(=O)O` [OXACILLIN], for which the AC50 (on Adenosine receptor A3; in experiment [3]) was over 30 µM throughout.
In the case of `CCn1cc(C(=O)O)c(=O)c2cc3c(cc21)OCO3` [OXOLINIC ACID], the AC50 (on Adenosine receptor A3; in experiment [3]) was over 30 µM in each case.
As for `N#Cc1ccc2c(c1)N(CCCN1CCC(O)CC1)c1ccccc1S2` [PERICIAZINE], the figures for the AC50 (on Adenosine receptor A3; in experiment [3]) were over 30 µM and 5.58 µM, respectively.
On the same counts, the results for `FC(F)(F)c1ccc(CNc2ccc(Cc3c[nH]c4ncc(Cl)cc34)cn2)cn1` [PEXIDARTINIB] are 3.69 µM and 0.389 µM.
On to `Nc1ccc(C(=O)Oc2ccccc2)c(O)c1` [PHENYL AMINOSALICYLATE], for which the AC50 was determined as 18.4 µM on Adenosine receptor A3 and 17.1 µM in experiment [3].
As to `CN1CCC(=C2c3ccccc3Sc3ccccc32)CC1` [PIMETHIXENE], the AC50 on Adenosine receptor A3 amounted to 25.9 µM; in experiment [3], 0.0216 µM.
As to `[H]/N=C(\N/C(=N/[H])Nc1ccc(Cl)cc1)NC(C)C` [PROGUANIL], the AC50 (on Adenosine receptor A3; in experiment [3]) was over 30 µM throughout.
Take `CC(CN1CC(=O)NC(=O)C1)N1CC(=O)NC(=O)C1` (stereo not given) [RAZOXANE]: the concentration at half-maximal activity (AC50) (on Adenosine receptor A3; in experiment [3]) was over 30 µM throughout.
On to `N[C@@H](CO)C(=O)O` [SERINE], for which the concentration at half-maximal activity (AC50) (on Adenosine receptor A3; in experiment [3]) was over 30 µM in each case.
As to `CC(C)OC(=O)CCC/C=C\C[C@@H]1[C@@H](/C=C/C(F)(F)COc2ccccc2)[C@H](O)C[C@@H]1O` [TAFLUPROST], the AC50 (on Adenosine receptor A3; in experiment [3]) was over 30 µM throughout.
Consider `CC[C@H]1OC(=O)[C@H](C)C(=O)[C@H](C)[C@@H](O[C@@H]2O[C@H](C)C[C@H](N(C)C)[C@H]2O)[C@](C)(OC)C[C@@H](C)C(=O)[C@H](C)[C@H]2N(CCCCn3cnc(-c4cccnc4)c3)C(=O)O[C@]12C` [TELITHROMYCIN], for which the concentration at half-maximal activity (AC50) (on Adenosine receptor A3; in experiment [3]) was over 30 µM in each case.
For the compound `CC(=O)Oc1cc(C(F)(F)F)ccc1C(=O)O` [TRIFLUSAL], the AC50 (at Adenosine receptor A3; in experiment [3]) was over 30 µM each time.
